Patent US4450269A, “Mono-5-substituted-3-chloro-4H-1,2,6-thiadiazin-4-one antifungal agents” (FMC Corporation, priority 1980, dated 1984)

Tested on: Fusarium solani
Experiment: Mycelial growth test
Assay type: cell-based
Conditions: for Percent Fungus Growth Inhibition / inhibition at 5 ppm / inhibition at 10 ppm / inhibition at 20 ppm: PS, 72 hours; for inhibition at 5 ppm / inhibition at 10 ppm / inhibition at 20 ppm / inhibition at 40 ppm: Fusarium solani, 72 h; for inhibition at 5 ppm / inhibition at 10 ppm / inhibition at 20 ppm: read-out: Percent Fungus Growth Inhibition; for inhibition at 40 ppm: read-out: Percent Fungus Growth Inhibition, PS, 40 ppm, 72 hours

Compound | Percent Fungus Growth Inhibition (5 ppm) | Percent Fungus Growth Inhibition (10 ppm) | Percent Fungus Growth Inhibition (20 ppm) | Percent Fungus Growth Inhibition (40 ppm) | inhibition at 5 ppm (5 ppm) | inhibition at 10 ppm (10 ppm) | inhibition at 20 ppm (20 ppm) | inhibition at 40 ppm
3-chloro-5-(bromophenoxy)-4H-1,2,6-thiadiazin-4-one [Compound 33] | 3% | 33% | 53% | 93% |  |  |  | 
O=c1c(Cl)nsnc1Oc1ccccc1 [Compound 2, 3-chloro-5-phenoxy-4H--1,2,6-thiadiazin-4-one] |  |  |  |  | 53% | 65% | 76% | 100%
Cc1ccc(Oc2nsnc(Cl)c2=O)cc1 [Compound 3, 3-chloro-5-(4-methylphenoxy)-4H--1,2,6-thiadiazin-4-one] |  |  |  |  | 35% | 53% | 65% | 65%
CC(C)(C)c1ccc(Oc2nsnc(Cl)c2=O)cc1 [Compound 4, 3-chloro-5-(4-tert-butylphnoxy)-4H--1,2,6-thiadiazin-4-one] |  |  |  |  | 0% | 0% | 0% | 8%
COc1ccc(Oc2nsnc(Cl)c2=O)cc1 [Compound 5, 3-chloro-5-(4-methoxyphenoxy)4H--1,2,6-thiadiazin-4-one] |  |  |  |  | 18% | 35% | 6% | 71%
CCCCOc1ccc(Oc2nsnc(Cl)c2=O)cc1 [Compound 6, 3-chloro-5-(4-n-butoxyphenoxy)-4H--1,2,6-thiadiazin-4-one] |  |  |  |  | 0% | 0% | 0% | 13%
CCOC(=O)c1ccc(Oc2nsnc(Cl)c2=O)cc1 [Compound 7, 3-chloro-5-(4-ethoxycarbonylphenoxy)-4H--1,2,6-thiadiazin-4-one] |  |  |  |  | 42% | 54% | 69% | 88%
CC(=O)Nc1ccc(Oc2nsnc(Cl)c2=O)cc1 [Compound 8, 5-(4-acetylaminophenoxy)-3-chloro-4H--1,2,6-thiadiazin-4-one] |  |  |  |  | 3% | 41% | 31% | 31%
O=c1c(Cl)nsnc1Oc1ccc([N+](=O)[O-])cc1 [Compound 9, 3-chloro-5-(4-nitrophenoxy)-4H--1,2,6-thiadiazin-4-one] |  |  |  |  | 65% | 76% | 53% | 100%
N#Cc1ccc(Oc2nsnc(Cl)c2=O)cc1 [Compound 10, 3-chloro-5-(4-cyanophenoxy)-4H--1,2,6-thiadiazin-4-one] |  |  |  |  | 17% | 33% | 50% | 75%
O=c1c(Cl)nsnc1Oc1ccc(F)cc1 [Compound 11, 3-chloro-5-(4-fluorophenoxy)-4H--1,2,6-thiadiazin-4-one] |  |  |  |  | 17% | 33% | 83% | 75%
O=c1c(Cl)nsnc1Oc1ccc(Cl)cc1 [Compound 12, 3-chloro-5-(4-chlorophenoxy)-4H--1,2,6-thiadiazin-4-one] |  |  |  |  | 71% | 59% | 65% | 100%
O=c1c(Cl)nsnc1Oc1cccc(Cl)c1 [Compound 13, 3-chloro-5-(3-chlorophenoxy)-4H--1,2,6-thiadiazin-4-one] |  |  |  |  | 38% | 50% | 72% | 100%
O=c1c(Cl)nsnc1Oc1ccccc1Cl [Compound 14, 3-chloro-5-(2-chlorophenoxy)-4H--1,2,6-thiadiazin-4-one] |  |  |  |  | 44% | 100% | 100% | 100%
O=c1c(Cl)nsnc1Oc1ccc(Br)cc1 [Compound 15, 3-chloro-5-(4-bromophenoxy)-4H--1,2,6-thiadiazin-4-one] |  |  |  |  | 0% | 42% | 42% | 83%
O=c1c(Cl)nsnc1Oc1ccc(Cl)c(Cl)c1 [Compound 16, 3-chloro-5-(3,4-dichlorophenoxy)-4H--1,2,6-thiadiazin-4-one] |  |  |  |  | 53% | 47% | 47% | 41%
O=c1c(Cl)nsnc1Oc1ccc(Cl)cc1Cl [Compound 17, 3-chloro-5-(2,4-dichlorophenoxy)-4H--1,2,6-thiadiazin-4-one] |  |  |  |  | 50% | 75% | 100% | 100%
O=c1c(Cl)nsnc1Oc1c(Cl)cccc1Cl [Compound 18, 3-chloro-5-(2,6-dichlorophenoxy)-4H--1,2,6-thiadiazin-4-one] |  |  |  |  | 41% | 50% | 75% | 75%
O=c1c(Cl)nsnc1Oc1cccc(Cl)c1Cl [Compound 19, 3-chloro-5-(2,3-dichlorophenoxy)-4H--1,2,6-thiadiazin-4-one] |  |  |  |  | 50% | 66% | 81% | 100%
O=c1c(Cl)nsnc1Oc1cc(Cl)cc(Cl)c1 [Compound 20, 3-chloro-5-(3,5-dichlorophenoxy)-4H--1,2,6-thiadiazin-4-one] |  |  |  |  | 59% | 66% | 100% | 69%
